Experiments:
[1] = Inhibition of Vibrio cholerae alpha carbonic anhydrase preincubated for 15 mins by stopped flow CO2 hydration assay
[2] = Inhibition of Vibrio cholerae beta carbonic anhydrase preincubated for 15 mins by stopped flow CO2 hydration assay

| SMILES | Ki [1] | Ki [2] |
| --- | --- | --- |
| COc1cc(NC(=O)c2ccc3c(c2)C(=O)N(c2ccc(S(N)(=O)=O)cc2)C3=O)c(C(=O)O)cc1OC | 2.84 µM | 7.97 µM |
| NS(=O)(=O)c1ccc(CCN2C(=O)c3ccc(C(=O)Nc4ccc(I)cc4C(=O)O)cc3C2=O)cc1 | 2.58 µM | 6.75 µM |
| COc1cc(NC(=O)c2ccc3c(c2)C(=O)N(CCc2ccc(S(N)(=O)=O)cc2)C3=O)c(C(=O)O)cc1OC | 3.19 µM | 8.58 µM |
| Cc1ccc(NC(=O)c2ccc3c(c2)C(=O)N(Cc2ccc(S(N)(=O)=O)cc2)C3=O)c(C(=O)O)c1 | 2.59 µM | 8.2 µM |
| Cc1ccc(NC(=O)c2ccc3c(c2)C(=O)N(c2ccc(S(N)(=O)=O)cc2)C3=O)c(C(=O)O)c1 | 1.68 µM | 5.42 µM |
| NS(=O)(=O)c1ccc(N2C(=O)c3ccc(C(=O)Nc4ccc(I)cc4C(=O)O)cc3C2=O)cc1 | 0.281 µM | 5.4 µM |
| NS(=O)(=O)c1ccc(CN2C(=O)c3ccc(C(=O)Nc4ccc(I)cc4C(=O)O)cc3C2=O)cc1 | 1.33 µM | 6.78 µM |
| Cc1ccc(NC(=O)c2ccc3c(c2)C(=O)N(CCc2ccc(S(N)(=O)=O)cc2)C3=O)c(C(=O)O)c1 | 1.96 µM | 9.26 µM |
| COc1cc(NC(=O)c2ccc3c(c2)C(=O)N(Cc2ccc(S(N)(=O)=O)cc2)C3=O)c(C(=O)O)cc1OC | 2.93 µM | 9.26 µM |
